In paper PMC9950447, “Targeting USP10 induces degradation of oncogenic ANLN in esophageal squamous cell carcinoma” (Cell Death and Differentiation, 2022):

Legend:
USP10 = target: T1, USP10 (Homo sapiens, UniProt Q14694); assay: SPR (Biacore T200, His-USP10 immobilized on CM5 chip); supported by Ub-AMC inhibition of purified USP10 (IC50 […]); assay type: binding
T1 construct: His-USP10

recombinant GST-USP10 = recombinant GST-USP10 (human, UniProt Q14694-3 1-802); assay: pull-down; in vitro GST pull down: GST-tagged protein bound to GST Bind Resin in GST lysis buffer, His-tagged proteins added, 4 °C for 4 h, six washes with PBST, western blot; settings: both partners purified
Sequence of recombinant GST-USP10 (Q14694 other isoform, or with tags, fused parts or gaps): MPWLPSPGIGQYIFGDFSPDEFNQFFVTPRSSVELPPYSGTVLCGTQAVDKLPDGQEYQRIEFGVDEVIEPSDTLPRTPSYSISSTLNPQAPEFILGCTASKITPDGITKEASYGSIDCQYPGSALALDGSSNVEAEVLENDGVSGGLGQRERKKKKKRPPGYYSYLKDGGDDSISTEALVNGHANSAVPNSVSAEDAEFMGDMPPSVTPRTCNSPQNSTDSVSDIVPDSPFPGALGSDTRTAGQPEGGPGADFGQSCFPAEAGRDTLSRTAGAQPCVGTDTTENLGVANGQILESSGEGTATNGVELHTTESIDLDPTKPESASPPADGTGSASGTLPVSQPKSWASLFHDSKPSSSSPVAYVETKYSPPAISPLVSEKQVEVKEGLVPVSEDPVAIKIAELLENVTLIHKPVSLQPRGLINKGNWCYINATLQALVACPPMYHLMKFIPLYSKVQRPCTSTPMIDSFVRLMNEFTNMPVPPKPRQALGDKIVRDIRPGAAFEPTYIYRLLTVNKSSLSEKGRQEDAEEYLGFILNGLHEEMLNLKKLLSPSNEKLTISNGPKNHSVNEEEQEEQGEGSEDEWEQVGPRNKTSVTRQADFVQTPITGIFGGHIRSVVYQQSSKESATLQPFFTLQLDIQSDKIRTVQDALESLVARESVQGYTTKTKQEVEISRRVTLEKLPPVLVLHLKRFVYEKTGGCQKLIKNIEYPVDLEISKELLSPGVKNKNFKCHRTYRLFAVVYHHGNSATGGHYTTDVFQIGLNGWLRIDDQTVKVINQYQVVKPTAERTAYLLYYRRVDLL

T1 sequence (Q14694 2-798): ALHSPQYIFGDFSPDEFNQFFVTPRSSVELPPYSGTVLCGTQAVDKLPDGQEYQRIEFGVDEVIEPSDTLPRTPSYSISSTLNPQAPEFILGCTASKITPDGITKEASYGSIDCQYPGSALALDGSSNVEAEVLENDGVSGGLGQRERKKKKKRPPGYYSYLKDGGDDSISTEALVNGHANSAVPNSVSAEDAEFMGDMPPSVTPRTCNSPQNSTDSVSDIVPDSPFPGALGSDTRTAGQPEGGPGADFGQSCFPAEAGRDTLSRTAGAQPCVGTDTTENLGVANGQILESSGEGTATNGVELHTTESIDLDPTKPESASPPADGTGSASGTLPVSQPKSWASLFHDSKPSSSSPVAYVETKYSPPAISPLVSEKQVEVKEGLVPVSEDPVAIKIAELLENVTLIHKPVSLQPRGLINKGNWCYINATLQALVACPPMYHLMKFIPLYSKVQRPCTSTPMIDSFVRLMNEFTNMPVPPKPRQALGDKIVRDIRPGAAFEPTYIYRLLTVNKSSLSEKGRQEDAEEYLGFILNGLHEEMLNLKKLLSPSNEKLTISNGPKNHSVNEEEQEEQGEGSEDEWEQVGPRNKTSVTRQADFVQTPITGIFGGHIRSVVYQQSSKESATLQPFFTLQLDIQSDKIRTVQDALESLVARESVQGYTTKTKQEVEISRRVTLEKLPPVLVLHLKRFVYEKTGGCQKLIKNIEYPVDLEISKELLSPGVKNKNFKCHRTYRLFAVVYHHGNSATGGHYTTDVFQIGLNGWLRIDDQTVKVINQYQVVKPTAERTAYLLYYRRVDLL

**Q.** CC1=C[C@H](C)C[C@H](C)[C@H](Cc2cnco2)OC(=O)/C(C)=C\[C@H](C)C[C@H](C)[C@H](Cc2cnco2)OC1=O [F806, FW-04-806] was tested. Which Kd (USP10) did it give?
**A.** The Kd was ~27.5 µM.

B1: His-ANLN amino acids 1-454 (domain or fragment, human, UniProt Q9NQW6 1-454, looked up)
chain: MDPFTEKLLERTRARRENLQRKMAERPTAAPRSMTHAKRARQPLSEASNQQPLSGGEEKSCTKPSPSKKRCSDNTEVEVSNLENKQPVESTSAKSCSPSPVSPQVQPQAADTISDSVAVPASLLGMRRGLNSRLEATAASSVKTRMQKLAEQRRRWDNDDMTDDIPESSLFSPMPSEEKAASPPRPLLSNASATPVGRRGRLANLAATICSWEDDVNHSFAKQNSVQEQPGTACLSKFSSASGASARINSSSVKQEATFCSQRDGDASLNKALSSSADDASLVNASISSSVKATSPVKSTTSITDAKSCEGQNPELLPKTPISPLKTGVSKPIVKSTLSQTVPSKGELSREICLQSQSKDKSTTPGGTGIKPFLERFGERCQEHSKESPARSTPHRTPIITPNTKAIQERLFKQDTSSSTTHLAQQLKQERQKELACLRGRFDKGNIWSAEKGG
notes: also called His-ANLN mutant
**Q.** Does B1 bind (recombinant GST-USP10)?
**A.** Result: binds
